# Data: ChEMBL document CHEMBL5346927, “Discovery of a novel 1H-pyrazole- [3,4-b] pyridine-based lysine demethylase 5B inhibitor with potential anti-prostate cancer activity that perturbs the phosphoinositide 3-kinase/AKT pathway” (Eur J Med Chem, 2023)
# The source made the active and inactive calls. The rule behind the calls is not given here.
# Tests used:
# PC-3 [1] = experiment: Antitumor activity against human PC-3 cells assessed as inhibition of cell proliferation incubated for 72 hrs by MTT assay; assay type: functional, cell-based; details: PC-3, 72 h
# MCF7 = experiment: Antitumor activity against human MCF7 cells assessed as inhibition of cell proliferation incubated for 72 hrs by MTT assay; assay type: functional, cell-based; details: MCF7, 72 h
# HepG2 = experiment: Antitumor activity against human HepG2 cells assessed as inhibition of cell proliferation incubated for 72 hrs by MTT assay; assay type: functional, cell-based; details: HepG2, 72 h
# MGC-803 = experiment: Antitumor activity against human MGC-803 cells assessed as inhibition of cell proliferation incubated for 72 hrs by MTT assay; assay type: functional, cell-based; details: MGC-803, 72 h
# DU-145 = experiment: Antiproliferative activity against human DU-145 cells assessed as inhibition of cell proliferation incubated for 72 hrs by MTT assay; assay type: functional, cell-based; details: DU-145, 72 h
# [2] = Cytotoxicity against human WPMY-1 cells incubated for 72 hrs by MTT assay; assay type: toxicity, cell-based
# [3] = molecular target: T1, Lysine-specific demethylase 5B (Homo sapiens, UniProt Q9UGL1); experiment: Binding affinity to KDM5B in human PC-3 cells assessed as thermal stability by measuring KDM5B expression level preincubated with compound for 6 hrs followed by 20 mins incubation under 46 to 56 degreeC by CETSA based Western blot analysis; assay type: cell-based; details: time 380.0 min
# T1 sequence (Q9UGL1 whole entry): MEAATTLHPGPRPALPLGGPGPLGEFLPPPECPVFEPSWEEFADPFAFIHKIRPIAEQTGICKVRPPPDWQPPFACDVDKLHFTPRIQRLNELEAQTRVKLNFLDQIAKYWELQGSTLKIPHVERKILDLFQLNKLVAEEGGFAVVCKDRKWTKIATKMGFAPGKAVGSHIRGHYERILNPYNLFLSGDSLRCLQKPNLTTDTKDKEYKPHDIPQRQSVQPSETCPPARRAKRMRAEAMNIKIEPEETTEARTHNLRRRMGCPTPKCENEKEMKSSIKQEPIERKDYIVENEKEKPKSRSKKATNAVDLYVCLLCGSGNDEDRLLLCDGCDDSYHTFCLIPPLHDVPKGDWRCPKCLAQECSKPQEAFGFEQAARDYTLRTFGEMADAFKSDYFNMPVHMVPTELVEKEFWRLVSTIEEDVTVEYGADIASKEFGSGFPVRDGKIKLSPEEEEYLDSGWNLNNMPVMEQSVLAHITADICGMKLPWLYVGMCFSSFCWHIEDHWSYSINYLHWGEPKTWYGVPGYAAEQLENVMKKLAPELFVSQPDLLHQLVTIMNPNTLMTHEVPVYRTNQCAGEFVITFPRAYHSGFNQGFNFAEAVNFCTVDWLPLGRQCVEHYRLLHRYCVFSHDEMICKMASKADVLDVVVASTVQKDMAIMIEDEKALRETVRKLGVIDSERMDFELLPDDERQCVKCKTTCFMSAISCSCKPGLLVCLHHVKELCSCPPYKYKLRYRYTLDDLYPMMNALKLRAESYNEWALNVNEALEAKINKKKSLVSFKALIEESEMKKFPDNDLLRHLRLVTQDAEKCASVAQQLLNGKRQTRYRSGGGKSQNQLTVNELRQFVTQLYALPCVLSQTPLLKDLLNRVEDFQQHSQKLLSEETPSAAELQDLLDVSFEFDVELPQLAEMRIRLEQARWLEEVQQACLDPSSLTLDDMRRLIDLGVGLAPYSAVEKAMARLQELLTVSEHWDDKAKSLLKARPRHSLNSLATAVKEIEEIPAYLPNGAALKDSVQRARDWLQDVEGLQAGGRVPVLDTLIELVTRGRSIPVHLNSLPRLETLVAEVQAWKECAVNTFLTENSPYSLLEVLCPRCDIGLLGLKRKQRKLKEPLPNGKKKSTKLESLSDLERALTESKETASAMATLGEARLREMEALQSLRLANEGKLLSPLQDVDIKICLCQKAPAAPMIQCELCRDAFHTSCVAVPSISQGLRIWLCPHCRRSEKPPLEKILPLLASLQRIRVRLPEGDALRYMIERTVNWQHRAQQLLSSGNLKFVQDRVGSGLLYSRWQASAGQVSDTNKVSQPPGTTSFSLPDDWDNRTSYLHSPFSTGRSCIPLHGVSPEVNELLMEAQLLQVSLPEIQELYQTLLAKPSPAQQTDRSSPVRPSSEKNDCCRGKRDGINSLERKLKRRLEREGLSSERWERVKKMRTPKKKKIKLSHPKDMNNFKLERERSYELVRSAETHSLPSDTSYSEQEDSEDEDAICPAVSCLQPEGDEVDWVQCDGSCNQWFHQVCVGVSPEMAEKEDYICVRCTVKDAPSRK
# [4] = MRT (0 to t) in ICR mouse at 25 mg/kg, IG measured at 0.083 to 24 hrs by LC-MS analysis; assay type: ADME, organism-based; details: in vivo, po, time 0.083-24 hrs
# [5] = Cmax in ICR mouse at 25 mg/kg, IG measured at 0.083 to 24 hrs by LC-MS analysis; assay type: ADME, organism-based; design: time lower 0.083 hrs, dose 25 mg/kg, time upper 24 hrs, route ig; details: in vivo, po
# [6] = Tmax in ICR mouse at 25 mg/kg, IG measured at 0.083 to 24 hrs by LC-MS analysis; assay type: ADME, organism-based; details: in vivo, po, time 0.083-24 hrs
# [7] = Half-life in ICR mouse at 25 mg/kg, IG measured at 0.083 to 24 hrs by LC-MS analysis; assay type: ADME, organism-based; details: in vivo, po, time 0.083-24 hrs
# [8] = molecular target: T1, Lysine-specific demethylase 5B; experiment: Inhibition of KDM5B in human PC-3 cells assessed as H3K4me3 accumulation incubated for 72 hrs by Western blot analysis; assay type: cell-based
# PC-3 [9] = experiment: Inhibition of colony formation in human PC-3 cells incubated for 72 hrs by crystal violet staining based microplate reader analysis; assay type: functional, cell-based; details: dose 1.25-5 µM
# PC-3 [10] = experiment: Induction of cell cycle arrest in human PC-3 cells assessed as increase in G2/M phase cell ratio at 2.5 uM incubated for 24 hrs by PI/RNase A staining based flow cytometric analysis (reference value: 16.07%); assay type: functional
# PC-3 [11] = experiment: Induction of cell cycle arrest in human PC-3 cells assessed as increase in G2/M phase cell ratio at 10 uM incubated for 24 hrs by PI/RNase A staining based flow cytometric analysis (reference value: 16.07%); assay type: functional
# LNCaP = experiment: Induction of cell cycle arrest in human LNCaP cells assessed as accumulation of cells at G2/M phase at 5 micromol/L incubated for 48 hrs by PI/RNaseA staining based flow cytometric analysis; assay type: functional; details: dose 5.0 µmol/L
# PC-3 [12] = experiment: Induction of apoptosis in human PC-3 cells assessed as viable cells at 2.5 uM incubated for 72 hrs by Annexin V-FITC/PI staining based flow cytometric analysis (reference value: 90.93%); assay type: functional; details: read-out: Activity
# PC-3 [13] = experiment: Induction of apoptosis in human PC-3 cells assessed as early apoptotic cells at 10 uM incubated for 72 hrs by Annexin V-FITC/PI staining based flow cytometric analysis (reference value: 3.01%); assay type: functional
# PC-3 [14] = experiment: Induction of apoptosis in human PC-3 cells assessed as necrotic cells at 10 uM incubated for 72 hrs by Annexin V-FITC/PI staining based flow cytometric analysis (reference value: 5.01%); assay type: functional
# [15] = Oral bioavailability in ICR mouse at 25 mg/kg measured at 0.083 to 24 hrs by LC-MS analysis; assay type: ADME, organism-based; details: in vivo, time 0.083-24 hrs
# [16] = Half-life in ICR mouse at 5 mg/kg, iv measured at 0.083 to 24 hrs by LC-MS analysis; assay type: ADME, organism-based; details: in vivo, time 0.083-24 hrs
# [17] = Cmax in ICR mouse at 5 mg/kg, iv measured at 0.083 to 24 hrs by LC-MS analysis; assay type: ADME, organism-based; design: time upper 24 hrs, time lower 0.083 hrs, dose 5 mg/kg, route iv; details: in vivo
# [18] = AUC (0 to t) in ICR mouse at 5 mg/kg, iv measured at 0.083 to 24 hrs by LC-MS analysis; assay type: ADME, organism-based; design: time lower 0.083 hrs, dose 5 mg/kg, time upper 24 hrs, route iv; details: in vivo
# [19] = Clearance in ICR mouse at 5 mg/kg, iv measured at 0.083 to 24 hrs by LC-MS analysis; assay type: ADME, organism-based; details: in vivo, time 0.083-24 hrs
# [20] = Acute toxicity in Kunming mouse assessed as effect on weight at 2 g/Kg, IG measured after 2 weeks; details: in vivo, po, 2000 mg/kg, 336 h
# [21] = Acute toxicity in Kunming mouse assessed as effect on spleen at 2 g/Kg, IG measured after 2 weeks by H&E staining based analysis; assay type: tissue-based; details: in vivo, po, 2000 mg/kg, 336 h
# [22] = Acute toxicity in Kunming mouse assessed as effect on kidney at 2 g/Kg, IG measured after 2 weeks by H&E staining based analysis; assay type: tissue-based; details: in vivo, po, 2000 mg/kg, 336 h
# [23] = Acute toxicity in Kunming mouse assessed as prostate gland damage at 2 g/Kg, IG measured after 2 weeks by H&E staining based analysis; assay type: tissue-based; details: in vivo, po, 2000 mg/kg, 336 h
# [24] = Toxicity in BALB/C nude mouse xenografted with human PC-3 cells assessed as effect on body weight at 25 to 50 mg/kg, IG administered for 25 days; assay type: organism-based; details: in vivo, po, 600 h, dose 25-50 mg/kg, time 25 day
# [25] = Toxicity in BALB/C nude mouse xenografted with human PC-3 cells assessed as lung damage at 25 to 50 mg/kg, IG administered for 25 days by H&E staining based analysis; assay type: organism-based; details: in vivo, po, 600 h, dose 25-50 mg/kg, time 25 day
# [26] = Toxicity in BALB/C nude mouse xenografted with human PC-3 cells assessed as reduction in prostate gland cells at 25 mg/kg, IG administered for 25 days by H&E staining based analysis; assay type: organism-based; details: in vivo, po, 600 h, time 25 day
# [27] = Toxicity in BALB/C nude mouse xenografted with human PC-3 cells assessed as prostate gland damage at 25 to 50 mg/kg, IG administered for 25 days by H&E staining based analysis; assay type: organism-based; details: in vivo, po, 600 h, dose 25-50 mg/kg, time 25 day
# PC-3 [28] = experiment: Inhibition of PI3K/AKT pathway in human PC-3 cells assessed as decrease in P110alpha level at 20 uM by Western blot analysis relative to control; assay type: cell-based
# PC-3 [29] = experiment: Inhibition of PI3K/AKT pathway in human PC-3 cells assessed as decrease in P85 level at 2.5 to 5 uM by Western blot analysis; assay type: cell-based; details: dose 2.5-5 µM
# PC-3 [30] = experiment: Inhibition of PI3K/AKT pathway in human PC-3 cells assessed as decrease in P85 level at 10 to 20 uM by Western blot analysis; assay type: cell-based; details: dose 10-20 µM
# PC-3 [31] = experiment: Inhibition of PI3K/AKT pathway in human PC-3 cells assessed as decrease in AKT phosphorylation at Ser473 residue at 2.5 to 10 uM by Western blot analysis; assay type: cell-based; details: dose 2.5-10 µM
# PC-3 [32] = experiment: Inhibition of PI3K/AKT pathway in human PC-3 cells assessed as decrease in AKT phosphorylation at Thr308 residue at 20 uM by Western blot analysis relative to control; assay type: cell-based
structure (smiles),measurement,setting,value
CN1CCN(CCNC(=O)c2cc(-c3ccc4ccccc4c3)nc3c2cnn3-c2ccccc2)CC1,IC50,PC-3 [1],2.18 µM
same,IC50,MCF7,6.77 µM
same,IC50,HepG2,5.76 µM
same,IC50,MGC-803,6.09 µM
same,IC50,DU-145,9.53 µM
same,IC50 at 72 h,[2],27.9 µM
same,Activity,[3],Active
same,MRT last,[4],6.9 h
same,Cmax,[5],412 ng/mL
same,Tmax,[6],6 h
same,half-life,[7],5.3 h
same,inhibition,[8],Dose-Dependent Effect
same,inhibition,PC-3 [9],Dose-Dependent Effect
same,Activity,PC-3 [10],18.17%
same,Activity,PC-3 [11],75.33%
same,Activity,LNCaP,inactive
same,viability at 2.5 µM,PC-3 [12],75%
same,Activity,PC-3 [13],0.81%
same,Activity,PC-3 [14],23.96%
same,F,[15],20.28%
same,t1/2,[16],2.95 h
same,Cmax,[17],551.67 ng/mL
same,AUCt,[18],44437.67 ng·h/mL
same,CL,[19],8.17 mL/min/kg
same,Activity,[20],Non-Toxic
same,Activity,[21],Non-Toxic
same,Activity,[22],Non-Toxic
same,Activity,[23],Non-Toxic
same,Activity,[24],Non-Toxic
same,Activity,[25],Non-Toxic
same,Activity,[26],Non-Toxic
same,Activity,[27],Non-Toxic
same,inhibition,PC-3 [28],80%
same,inhibition,PC-3 [29],inactive
same,inhibition,PC-3 [30],Active
same,inhibition,PC-3 [31],inactive
same,inhibition,PC-3 [32],60%
